Reference: publication PMC11643077, “Synthesis of 1,2,4-Oxadiazin-5(6H)-One Derivatives and Their Biological Investigation as Monoamine Oxidase Inhibitors” (Molecules, 2024)

Columns and labels:
[1] = tested on: MAO-A; design: method as in doi:10.1016/0223-5234(88)90141-9; settings: Figure 1; cited from earlier work
[2] = tested on: MAO-B; design: method as in doi:10.1016/0223-5234(88)90141-9; settings: Figure 1; cited from earlier work
[3] = target: T1, MAO-A (Homo sapiens, UniProt P21397); assay: MAO-A inhibition, recombinant human enzyme, kynuramine substrate, fluorometric end-point; format: biochemical; settings: mean ± SD of triplicate, racemic mixtures, NI = no inhibition at 100 µM
T1 construct: purchased Merck
T1 sequence (P21397 1-527): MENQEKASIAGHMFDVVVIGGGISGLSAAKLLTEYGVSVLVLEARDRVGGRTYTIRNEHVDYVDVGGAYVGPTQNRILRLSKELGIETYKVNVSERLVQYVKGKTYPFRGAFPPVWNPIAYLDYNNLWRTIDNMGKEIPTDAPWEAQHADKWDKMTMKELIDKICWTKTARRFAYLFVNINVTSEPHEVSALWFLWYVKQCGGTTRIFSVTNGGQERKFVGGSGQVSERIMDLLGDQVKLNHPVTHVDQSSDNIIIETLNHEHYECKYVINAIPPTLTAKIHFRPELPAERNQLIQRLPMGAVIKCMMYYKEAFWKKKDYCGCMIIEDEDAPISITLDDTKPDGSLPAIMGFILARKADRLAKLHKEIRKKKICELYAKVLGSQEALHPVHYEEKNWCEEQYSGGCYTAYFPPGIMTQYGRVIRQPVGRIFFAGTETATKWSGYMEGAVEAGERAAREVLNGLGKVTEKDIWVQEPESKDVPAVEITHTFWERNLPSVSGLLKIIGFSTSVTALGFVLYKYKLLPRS
Method: (§1) The in vitro inhibition studies were carried out according to the published procedure, and the inhibition potencies were expressed as the IC50 values (Figure 2). […] A variety of C3 substituents were explored in this study, which included the phenyl, benzyl and 5-methylthiophen-2-yl moieties, while different substituents on the phenyl (e.g., CH3, OCH3, Cl, Br, F, CF3, OCF3, NO2, PhO) were considered.
(§2) The inhibition potencies of the 1,2,4-oxadiazin-5(6H)-one derivatives were determined using commercially available recombinant human MAO-A and MAO-B (Merck) according to the published procedure. Stock solutions of all compounds were prepared in DMSO and added to the enzyme reactions to yield a final concentration of 4% DMSO. […] Kynuramine was used as enzyme substrate for both MAO isoforms and was oxidized to ultimately form 4-hydroxyquinoline, which is a fluorescent metabolite. The concentrations of 4-hydroxyquinoline in the reactions were measured at end-point by fluorescence spectrometry (λex = 310 nm; λem = 400 nm). Using this approach, the rates of kynuramine oxidation by MAO were measured in the presence of different concentrations of the test inhibitors (0.003–100 µM) as well as in the absence of inhibitor. […] IC50 values were estimated from these plots and were reported as the mean ± SD of triplicate determinations.

[4] = target: T2, MAO-B (Homo sapiens, UniProt P27338); assay: MAO-B inhibition, recombinant human enzyme, kynuramine substrate, fluorometric end-point; format: biochemical; settings: mean ± SD of triplicate, racemic mixtures, NI = no inhibition at 100 µM
T2 construct: purchased Merck
T2 sequence (P27338 1-520): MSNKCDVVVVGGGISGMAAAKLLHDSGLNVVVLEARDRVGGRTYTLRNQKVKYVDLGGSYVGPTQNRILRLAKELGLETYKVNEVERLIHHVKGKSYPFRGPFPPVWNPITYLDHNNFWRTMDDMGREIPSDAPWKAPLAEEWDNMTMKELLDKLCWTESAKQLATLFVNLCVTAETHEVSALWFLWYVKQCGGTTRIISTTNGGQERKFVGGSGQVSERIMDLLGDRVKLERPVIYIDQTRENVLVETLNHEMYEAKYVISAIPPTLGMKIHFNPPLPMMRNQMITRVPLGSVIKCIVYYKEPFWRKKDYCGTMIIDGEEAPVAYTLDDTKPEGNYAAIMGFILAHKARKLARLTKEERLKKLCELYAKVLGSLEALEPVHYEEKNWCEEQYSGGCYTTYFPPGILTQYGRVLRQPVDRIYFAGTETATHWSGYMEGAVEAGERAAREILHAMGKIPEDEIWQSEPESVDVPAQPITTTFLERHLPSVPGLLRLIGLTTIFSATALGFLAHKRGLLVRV
Method: as §1, §2

[5] = target: T2, MAO-B; assay: Mode of MAO-B inhibition, Lineweaver-Burk plots; format: biochemical
Method: (§3) To investigate the mode of MAO inhibition, Lineweaver–Burk plots were constructed for the two inhibitors of the respective MAO isoforms, 3f and 5f. For each inhibitor, six plots were constructed using a range of eight substrate concentrations (15–250 µM) for each plot. The inhibitor concentrations were selected to bracket the IC50 values. […] For each isoform, a plot was also constructed in the absence of the inhibitor.
(§4) To investigate the mode of inhibition, Lineweaver–Burk plots were constructed. A set of six plots were constructed for each test inhibitor using five inhibitor concentrations that bracketed the IC50 value as well as one plot in the absence of inhibitor. For each line, eight different concentrations of kynuramine (15–250 µM) were used. Subsequently, the slopes of the Lineweaver–Burk plots were plotted versus inhibitor concentration, and the Ki values were estimated from the x-intercept (Ki = −x-intercept).

[6] = target: T1, MAO-A; assay: Mode of MAO-A inhibition, Lineweaver-Burk plots; format: biochemical
Method: as §3, §4

| Compound | IC50 [1] | IC50 [2] | IC50 [3] | IC50 [4] | mode of MAO-B inhibition ([5]; Lineweaver-Burk plots) | Ki ([5]; from replot of Lineweaver-Burk slopes versus inhibitor concentration (0.25 to 1.25 µM), kynuramine 15–250 µM) | melting point | mode of MAO-A inhibition ([6]; Lineweaver-Burk plots) | Ki ([6]; from replot of Lineweaver-Burk slopes versus inhibitor concentration (1 to 5 µM), kynuramine 15–250 µM) |
| --- | --- | --- | --- | --- | --- | --- | --- | --- | --- |
| N#CCCN1N=C(c2ccc(-c3ccccc3)cc2)OCC1=O [A, 2-(4-Biphenylyl)-4-(2-cyanoethyl)-4H-1,3,4-oxadiazin-5(6H)-one] | 32 µM | 630 nM | – | – | – | – | – | – | – |
| CCC1ON=C(c2ccc(Oc3ccc(OC)cc3)cc2)NC1=O (centres unmarked) [Compound 5f, 6-Ethyl-3-(4-(4-methoxyphenoxy)phenyl)-4H-1,2,4-oxadiazin-5(6H)-one] | – | – | 15.4 ± 1.98 µM | 0.9 ± 0.05 µM | competitive inhibition | 350 nM | 117 to 119 °C | – | – |
| COc1ccc(Oc2ccc(C3=NOCC(=O)N3)cc2)cc1 [Compound 3f, 3-(4-(4-Methoxyphenoxy)phenyl)-4H-1,2,4-oxadiazin-5(6H)-one] | – | – | 3.75 ± 0.212 µM | 3.98 ± 0.518 µM | – | – | – | competitive inhibition | 1300 nM |
